Test [1] is described as follows: Restoration of thymus weight decreased by 5-FU injection. In kind it is in vivo, mice. As to conditions: for Av. thymus weight mg: 8 days after 5-FU, control 39.4, 5-FU alone 23.4; for Av. thymus weight %: % of control; for Restoration Activity(%): thymus weight. On the procedure:
It is known that anticancer drugs suppress immunological functions by affecting immunocytes. The thymus gland, which is essential for differentiation, maturation and supply to T-cells responsible for immunological reactions, decreases markedly in weight after injection of 5-FU. […] FIfty μg/kg of Compound A administered orally was as effective as 5 μg/kg of thymosin α1 injected intraperitoneally, when the thymus weight was measured immediately after the DTH measurement at 8 days after the 5-FU injection (see Table 5).
*Seven mice per group received the test compound one day before,
concurrently with, and 1 and 2 days after 5FU injection i.p. (100 mg/kg).
The mice were injected CRBC for The DTH assay at 3 and 7 days after the
The thymus weight was measured at 8 days after the 5FU injection.

Test [2] concerns Listeria monocytogenes EGD. The test is described as follows: Protection against Listeria monocytogenes infection in 5-FU immunosuppressed mice. It counts as in vivo. Conditions: for Survivors at Day 15 after infection: Table 8, i.p., 5-FU immunosuppressed mice, control 2/10. On the procedure: Normal mice (female ddY mice, 6 weeks old) were highly tolerant to infection with Candida albicans ATCC 10231 at relatively low dose (1-2×10^5 cells, iv.). However, when pretreated daily for ten times with 5-FU (25 mg/kg/day, ip.), the mice were susceptible to infection as shown in Table 6. […] Compound A was also shown to be active against infection with Pseudomonas aeruginosa 5E81-1 and Listeria monocytogenes EGD in the immunosuppressed mice (see Tables 7 and 8).

Where no end group is shown, it is not given here.

“KKEVVE [Compound A, L-Lysyl-L-lysyl-L-glutamyl-L-valyl-L-valyl-L-glutamic acid]”: the “restoration of thymus weight (in words)” value in test [1] (50 μg/kg orally, one day before, concurrently with, and 1 and 2 days after 5-FU (100 mg/kg)) was “restore the decreased thymus weight”. The “Av. thymus weight mg” value is on record as 23.0 ± 1.6 mg in test [1] (5-FU (100 mg/kg i.p.) plus 5.0 μg/kg/day p.o.) and 26.6 ± 1.0 mg in test [1] (5-FU (100 mg/kg i.p.) plus 50.0 μg/kg/day p.o.). Moreover, the “Av. thymus weight %” value in test [1] (5-FU plus 5.0 μg/kg/day p.o.) turned out to be 58.4%; in test [1] (5-FU plus 50.0 μg/kg/day p.o.), 67.5%. In addition, the “Restoration Activity(%)” value in test [1] (5-FU plus 50.0 μg/kg/day p.o.) turned out to be 20.0%. Besides, the figures for the “Survivors at Day 15 after infection” value in test [2] (0.04 μg/kg/day), in test [2] (0.4 μg/kg/day) and in test [2] (4 μg/kg/day) were 8/10, 6/10 and 6/10, respectively. Further, the “activity against infection (in words)” value in test [2] (immunosuppressed mice) is “active”.
Turning to “thymosin α1 (SDAAVDTSSEITTKDLKEKKEVVEEAEN; ends and bridges not checked; UniProt P01252 2-29, looked up) [peptide isolated from bovine thymus, stimulates maturation, differentiation and function of T cells; U.S. Pat. No. 4,079,127, reference compound]”, the “Av. thymus weight mg” value in test [1] (5-FU (100 mg/kg i.p.) plus 0.5 μg/kg/day i.p.) turned out to be 24.9 ± 1.7 mg; in test [1] (5-FU (100 mg/kg i.p.) plus 5.0 μg/kg/day i.p.), 26.7 ± 1.1 mg. Besides, the “Av. thymus weight %” value in test [1] (5-FU plus 0.5 μg/kg/day i.p.) came out at 63.2%; in test [1] (5-FU plus 5.0 μg/kg/day i.p.), 67.8%. Besides, the entries for the “Restoration Activity(%)” value in test [1] (5-FU plus 0.5 μg/kg/day i.p.) and in test [1] (5-FU plus 5.0 μg/kg/day i.p.) were 9.4% and 20.6%, respectively. Also, the “Survivors at Day 15 after infection” value in test [2] (4 μg/kg/day) is 7/10; in test [2] (40 μg/kg/day), 5/10.

The values are drawn from patent publication US4442031A, “Immunopotentiating peptides” (Hoffmann-La Roche Inc., priority 1983, dated 1984).
